Measurements taken from BigSolDB 2.1.

O=C(O)c1cc(C(=O)O)cc(C(=O)O)c1
Details | solubility (mole fraction)
in ethanol, 302.89 K | 0.0207
in ethanol, 309.85 K | 0.0228
in ethanol, 312.83 K | 0.0237
in ethanol, 319.06 K | 0.0257
in ethanol, 324.5 K | 0.0277
in ethylene glycol, 305.44 K | 0.00826
in ethylene glycol, 310.56 K | 0.00951
in ethylene glycol, 315.85 K | 0.0112
in ethylene glycol, 321.33 K | 0.0131
in ethylene glycol, 326.03 K | 0.0147
in ethylene glycol, 331.84 K | 0.0178
in isobutanol, 306 K | 0.0078
in isobutanol, 310.65 K | 0.0086
in isobutanol, 314.94 K | 0.00926
in isobutanol, 319.87 K | 0.0104
in isobutanol, 324.75 K | 0.0117
in isobutanol, 330.58 K | 0.0132
in isopropanol, 305.77 K | 0.00706
in isopropanol, 311.02 K | 0.00798
in isopropanol, 315.67 K | 0.00869
in isopropanol, 320.61 K | 0.00949
in isopropanol, 324.58 K | 0.0104
in isopropanol, 330.39 K | 0.0117
in methanol, 298.21 K | 0.012
in methanol, 304.67 K | 0.0138
in methanol, 308.78 K | 0.0151
in methanol, 313.97 K | 0.0169
in water, 301.05 K | 0.00015
in water, 305.47 K | 0.00019
in water, 309.8 K | 0.00025
in water, 315.22 K | 0.00033
in water, 320.56 K | 0.00044
in water, 325.11 K | 0.00055
in water, 329.42 K | 0.00069
